What was measured:
[1] = molecular target: T1, purified proteasomes (Homo sapiens, UniProt P28072); assay: Proteasome activity assay on purified proteasomes; type: biochemical; details: bortezomib 5 nM, thiostrepton 20 μM
T1 construct: purchased Enzo
Method: To assay proteasome inhibitor activities of proteasome inhibitors purified proteasomes, (0.5 μg, 1 μg/μL) were pre-incubated with inhibitors bortezomib (5 nM, 1 μL of 0.5 μM in DMSO) and/or thiostrepton (20 μM, 1 μL of 2 mM) in 10× assay buffer (10 μL) and H2O (88.5 μL) for 30 min at room temperature. Ac-YVAD-amc substrate (10 μL, 0.5 mM) was then added and the assay solution was incubated at […] for 2 hr, after which solutions were examined for fluorescence at excitation wavelength of 340 nm and emission wavelength of 505 nm. Values are represented as a % of the proteasome activity of non-inhibited proteasomes.

[2] = system: U2OS-C3 osteosarcoma cells; assay: Immunoblotting for caspase-3 cleavage, thiostrepton and bortezomib; type: cell-based, human; details: U2OS-C3, sub-apoptotic concentrations, 24 hr
Method: U2OS-C3 osteosarcoma, PA-1 ovarian, HCT116 colon and MiaPaca-2 pancreatic cancer cells were cultured in DMEM medium (Invitrogen). HCT-116 and MiaPaca-2 (shFOXM1) cells were cultured in DMEM medium (Invitrogen). MDA-MB231 (parental and shFOXM1) cells were grown in RPMI-1640 medium (Invitrogen). The media were supplemented with 10% fetal bovine serum (Atlanta Biologicals) and 1% penicillin-streptomycin (GIBCO) and the cells were kept at 37° C. in 5% CO2. Stable cell lines were generated by transduction of FOXM1 shRNA lentiviral particles (Sigma) followed by selection with puromycin (Sigma).
Actively dividing cells were seeded into a 100-mm plate at a density of 7.5×10^5 cells. […] Cells were lysed in IP buffer (20 mM HEPES, 1% Triton X-100, 150 mM NaCl, 1 mM EDTA, 1 mM EGTA, 100 mM NaF, 10 mM Na4P2O7, 1 mM sodium orthovanadate, 0.2 mM PMSF supplemented with protease inhibitor tablet and the protein concentration was determined using the Bio-Rad protein assay reagent. Fifty micrograms of the cell lysates were separated by electrophoresis on SDS-polyacrylamide mini gel and transferred to PVDF membrane Immunoblotting was performed with specific antibodies for cleaved caspase-3 (9664 Cell Signaling), FOXM1 (Dr. Costa) and β-actin (A5441, Sigma).

[3] = system: DEN/PB hepatocellular carcinoma mouse model
Method: The efficacy of nanoparticle micelle coated compositions containing thiostrepton in inhibiting tumor growth in DEN/PB hepatocellular carcinoma mouse model was evaluated.
Spontaneous induction of HCC was achieved by intraperitonial injection of the carcinogen diethylnitrosamine (DEN) into 2-day-old neonatal BALB/C mice. Carcinogenesis was further induced by continuing the mice on phenobarbital (PB)-doped drinking water (1 mg/mL). […] As a treatment schedule, animals were treated once every other day (3 times a week) for 5 weeks before sacrifice, after which livers were removed and examined for visible tumor growth (FIG. 14b).
Animal livers were then fixed in 4% paraformaldehyde, embedded in paraffin wax and the right lobe of embedded livers were sectioned and stained with H&E for quantitative analysis of carcinoma formation.

[4] = system: HCT-116 cells; assay: Detection of apoptosis by annexin V-PE/7AAD flow cytometry; type: cell-based, human; details: HCT-116, 0.75 μM thiostrepton, 10 nM bortezomib, 24 hr; single drugs over the control
Method: The AnnexinV-PE staining kit (559763, BD Bio. Sci.) was used for the detection of apoptotic bodies following the vendor's protocol. This kit uses a dual-staining protocol in which the cells show fluorescence of Annexin V (apoptotic cells) and fluorescence of 7AAD (necrotic cells or late apoptotic cells). Briefly the tumor cells were grown at a density of 50% confluence in 100-mm culture dishes and were treated with varying concentrations of the drugs for 24 hr. The cells were trypsinized, washed with PBS, and were processed for labeling with annexinV-7AAD. The labeled cells were analyzed by flow cytometry.

[5] = system: MDA-MB-231-luc solid breast tumor xenografts; assay: MDA-MB-231-luc breast tumor xenograft, combination with bortezomib; type: in vivo, athymic mice; details: thiostrepton 30 mg/kg i.v., bortezomib 0.5 mg/kg i.p., 5 injections
Method: Animals were maintained and treated in accordance with the Animal Care and Use Committee of UIC. […] Treatment began once tumors reached sizes of 100 mm^3. After completion of the dosing schedule, animals were sacrificed and tumors were removed. Tumors were frozen in liquid N2 and kept at −80° C. until further analysis.
Treatments were performed once every two days (3 times a week), during which tumor volumes were monitored with calipers (l×w×h=volume, mm^3). Animals were also weighed once a week. After 5 treatments, animals were sacrificed and tumors removed.
For bioluminescence imaging, animals were injected intraperitonially with 100 mg luciferin/kg 10 min before animals were anaesthetized under isoflurane. Animals were then imaged for tumor-associated bioluminescence (IVIS, Xenogen), where relative units of bioluminescence were quantified as flux (photon/sec) and analyzed with Living Image software.

[6] = Solubility observation of thiostrepton in cell media; type: physicochemical; details: DMSO-dissolved thiostrepton added to cell media

Structure (SMILES) | inhibition of purified proteasomes (YVAD-amc cleavage) [1] | caspase-3 cleavage [2] | body weights of treated animals compared to non-treated animals ([3]; 3 times a week for 5 weeks) | number of adenomas compared to livers from non-treated animals ([3]; single treatments, H&E sections) | fewer number of visible liver tumors compared to non-treated control animals ([3]; thiostrepton-micelle 30 mg/kg i.v., bortezomib 0.5 mg/kg i.p., 3 times a week for 5 weeks) [%] | apoptosis (annexin V-PE/7AAD) [4] [%] | tumor size / tumor growth compared to non-treated tumors [5] | increase in tumor size compared to the first day of treatment ([5]; 15 days) [fold] | solubility [6]
CC(C)C[C@H](NC(=O)[C@H](Cc1ccccc1)NC(=O)c1cnccn1)B(O)O [bortezomib] | only slightly hindered | little or no caspase-3 cleavage | did not decrease significantly | suppression of the number of adenomas | 50 | 6.9 | slight reduction in tumor growth | 6 | 
C=C(NC(=O)C(=C)NC(=O)c1csc(C2=N[C@@H]3c4csc(n4)[C@H]4NC(=O)c5csc(n5)[C@H]([C@](C)(O)[C@@H](C)O)NC(=O)[C@H]5CSC(=N5)/C(=C/C)NC(=O)[C@H]([C@@H](C)O)NC(=O)c5csc(n5)[C@]3(CC2)NC(=O)[C@H](C)NC(=O)C(=C)NC(=O)[C@H](C)NC(=O)[C@H]([C@@H](C)CC)N[C@@H]2C=Cc3c([C@H](C)O)cc(nc3[C@H]2O)C(=O)O[C@@H]4C)n1)C(N)=O [thiostrepton] | only slightly hindered | little or no caspase-3 cleavage |  |  |  | 6.1 |  |  | highly insoluble

From US20130164379A1, “NANOPARTICLE MICELLE COATED COMPOSITIONS” (priority 2011, published 2013)
